# Patent publication US20070049564A1 (Wyeth, priority 2005, published 2007)
# Read-outs that look alike come from different tables or passages of the source.
# What was measured:
# E. coli GC 2236 = assay: MIC, broth microdilution; conditions: Escherichia coli, GC2236, read-out: MINIMAL INHIBITORY CONCENTRATION MIC, pre-incubated in Water
# E. coli GC 2235 = assay: MIC, broth microdilution; conditions: Escherichia coli, GC2235, read-out: MINIMAL INHIBITORY CONCENTRATION MIC, pre-incubated in Water
# E. coli GC 2233 = assay: MIC, broth microdilution; conditions: Escherichia coli, GC2233, read-out: MINIMAL INHIBITORY CONCENTRATION MIC, pre-incubated in Water
# E. coli GC 2270 = assay: MIC, broth microdilution; conditions: Escherichia coli, GC2270, read-out: MINIMAL INHIBITORY CONCENTRATION MIC, pre-incubated in Water
# E. coli GC 2271 = assay: MIC, broth microdilution; conditions: Escherichia coli, GC2271, read-out: MINIMAL INHIBITORY CONCENTRATION MIC, pre-incubated in Water
# E. coli GC 4559 = assay: MIC, broth microdilution; conditions: Escherichia coli, GC4559, read-out: MINIMAL INHIBITORY CONCENTRATION MIC, pre-incubated in Water
# E. coli GC 4560 = assay: MIC, broth microdilution; conditions: Escherichia coli, GC4560, read-out: MINIMAL INHIBITORY CONCENTRATION MIC, pre-incubated in Water
# E. coli GC 6465 = assay: MIC, broth microdilution; conditions: Escherichia coli, GC6465, read-out: MINIMAL INHIBITORY CONCENTRATION MIC, pre-incubated in Water
# E. coli GC 2203 = assay: MIC, broth microdilution; conditions: Escherichia coli, GC2203, read-out: MINIMAL INHIBITORY CONCENTRATION MIC, pre-incubated in Water
# E. coli GC 1073 = assay: MIC, broth microdilution; conditions: Escherichia coli, GC1073, read-out: MINIMAL INHIBITORY CONCENTRATION MIC, pre-incubated in Water
# P. aeruginosa GC 2214 = assay: MIC, broth microdilution; conditions: Pseudomonas aeruginosa
# S. aureus GC 6467 = assay: MIC, broth microdilution; conditions: Staphylococcus aureus
# S. aureus GC 4536 = assay: MIC, broth microdilution; conditions: for MIC: Staphylococcus aureus
# Protocol: Antimicrobial susceptibility testing. The in vitro activities of the antibiotics are determined by the broth microdilution method as recommended by the National Committee for Clinical Laboratory Standards (NCCLS) (1). Mueller-Hinton II broth (MHBII)(BBL Cockeysville, Md.) is the medium employed in the testing procedures. Microtiter plates containing serial dilutions of each antimicrobial agent are inoculated with each organism to yield the appropriate density (10^5 CFU/ml) in a 100 μl final volume. The plates are incubated for 18-22 hours at 35° C. in ambient air.
# Representative compounds were first incubated in mouse serum for an hour prior to the in vitro testing against a panel of selected gram-positive and gram-negative bacteria strains. All compounds were also pre-incubated in water for an hour prior to testing as control. Representative compounds of Formula I were incubated in human serum prior to MIC determination.
# S. aureus GC 6469 = assay: MIC, broth microdilution; conditions: for MIC: Staphylococcus aureus
# E. faecalis GC 4555 = assay: MIC, broth microdilution; conditions: for MIC: Enterococcus faecalis
# E. faecalis GC 2265 = assay: MIC, broth microdilution; conditions: for MIC: Enterococcus faecalis
# E. faecalis GC 2242 = assay: MIC, broth microdilution; conditions: Enterococcus faecalis
# S. agalactiae GC 4564 = assay: MIC, broth microdilution; conditions: Streptococcus agalactiae, GC4564, read-out: MINIMAL INHIBITORY CONCENTRATION MIC, pre-incubated in Water
# E. coli = assay: Range of MIC for E. coli strains; conditions: Escherichia coli
# Staph. = assay: Range of MIC for Staph. strains, including MRSA; conditions: Staphylococcus aureus
smiles,measurement,setting,value
"CN(C)c1cc(NC(=O)CN(C(=O)OCOC(=O)CC(C)(C)C)C(C)(C)C)c(O)c2c1C[C@H]1C[C@H]3[C@H](N(C)C)C(O)=C(C(N)=O)C(=O)[C@@]3(O)C(O)=C1C2=O [Example 42, ({[(2-{[(5aR,6aS,7S,10aS)-9-(aminocarbonyl)-4,7-bis(dimethylamino)-1,8,10a,11-tetrahydroxy-10,12-dioxo-5,5a,6,6a,7,10,10a,12-octahydrotetracen-2-yl]amino}-2-oxoethyl)(tert-butyl)amino]carbonyl}oxy)methyl 3,3-dimethylbutanoate]",MIC,E. coli GC 2236,> 64 µg/mL
same,MIC,E. coli GC 2235,> 64 µg/mL
same,MIC,E. coli GC 2233,> 64 µg/mL
same,MIC,E. coli GC 2270,> 64 µg/mL
same,MIC,E. coli GC 2271,> 64 µg/mL
same,MIC,E. coli GC 4559,> 64 µg/mL
same,MIC,E. coli GC 4560,8 µg/mL
same,MIC,E. coli GC 6465,> 64 µg/mL
same,MIC,E. coli GC 2203,> 64 µg/mL
same,MIC,E. coli GC 1073,> 64 µg/mL
same,MIC,"P. aeruginosa GC 2214; GC2214, read-out: MINIMAL INHIBITORY CONCENTRATION MIC, pre-incubated in Mouse Serum",> 64 µg/mL
same,MIC,"P. aeruginosa GC 2214; GC2214, read-out: MINIMAL INHIBITORY CONCENTRATION MIC, pre-incubated in Water",> 64 µg/mL
same,MIC,"S. aureus GC 6467; GC6467, read-out: MINIMAL INHIBITORY CONCENTRATION MIC, pre-incubated in Mouse Serum",4 µg/mL
same,MIC,"S. aureus GC 6467; GC6467, read-out: MINIMAL INHIBITORY CONCENTRATION MIC, pre-incubated in Water",8 µg/mL
same,MIC,"S. aureus GC 4536; GC4536, read-out: MINIMAL INHIBITORY CONCENTRATION MIC, pre-incubated in Mouse Serum",2 µg/mL
same,MIC,"S. aureus GC 4536; GC4536, read-out: MINIMAL INHIBITORY CONCENTRATION MIC, pre-incubated in Water",8 µg/mL
same,MINIMAL INHIBITORY CONCENTRATION MIC,S. aureus GC 4536; pre-incubated in Mouse Serum,4 UG/ML
same,MIC,"S. aureus GC 6469; GC6469, read-out: MINIMAL INHIBITORY CONCENTRATION MIC, pre-incubated in Mouse Serum",2 µg/mL
same,MIC,"S. aureus GC 6469; GC6469, read-out: MINIMAL INHIBITORY CONCENTRATION MIC, pre-incubated in Water",4 µg/mL
same,MINIMAL INHIBITORY CONCENTRATION MIC,S. aureus GC 6469; pre-incubated in Mouse Serum,4 UG/ML
same,MIC,"E. faecalis GC 4555; GC4555, read-out: MINIMAL INHIBITORY CONCENTRATION MIC, pre-incubated in Mouse Serum",2 µg/mL
same,MIC,"E. faecalis GC 4555; GC4555, read-out: MINIMAL INHIBITORY CONCENTRATION MIC, pre-incubated in Water",4 µg/mL
same,MINIMAL INHIBITORY CONCENTRATION MIC,E. faecalis GC 4555; pre-incubated in Mouse Serum,4 UG/ML
same,MIC,"E. faecalis GC 2265; GC2265, read-out: MINIMAL INHIBITORY CONCENTRATION MIC, pre-incubated in Mouse Serum",2 µg/mL
same,MIC,"E. faecalis GC 2265; GC2265, read-out: MINIMAL INHIBITORY CONCENTRATION MIC, pre-incubated in Water",8 µg/mL
same,MINIMAL INHIBITORY CONCENTRATION MIC,E. faecalis GC 2265; pre-incubated in Mouse Serum,4 UG/ML
same,MIC,"E. faecalis GC 2242; GC2242, read-out: MINIMAL INHIBITORY CONCENTRATION MIC, pre-incubated in Mouse Serum",4 µg/mL
same,MIC,"E. faecalis GC 2242; GC2242, read-out: MINIMAL INHIBITORY CONCENTRATION MIC, pre-incubated in Water",8 µg/mL
same,MIC,S. agalactiae GC 4564,8 µg/mL
same,MIC,"E. coli; 20 h, read-out: Range of MIC, E. coli (Mouse Serum)",4 to 16 µg/mL
same,MIC,"E. coli; read-out: Minimum inhibitory concentration (MIC), E. coli (Human Serum)",> 64 µg/mL
same,MIC,"E. coli; read-out: Minimum inhibitory concentration (MIC), E. coli (water)",> 64 µg/mL
same,MIC,"E. coli; read-out: Range of MIC, E. coli (Water)",> 64 µg/mL
same,MIC,"Staph.; MRSA, read-out: Range of MIC, Staph (Mouse Serum)",2 to 4 µg/mL
same,MIC,"Staph.; MRSA, read-out: Range of MIC, Staph (Water)",4 to 8 µg/mL
same,MIC,"Staph.; read-out: Minimum inhibitory concentration (MIC), Staph (Human Serum)",2 to 4 µg/mL
same,MIC,"Staph.; read-out: Minimum inhibitory concentration (MIC), Staph (Water)",4 to 8 µg/mL
